The subject of this assay is FL-SMN mRNA (SMN transcript containing exons 7 and 8). As to the kind of experiment: Live-cell assay to measure changes in FL-SMN mRNA levels (qPCR) after exposure to the compounds. Type of assay: cell-based, human. The settings on record: fibroblasts derived from patients SMA (GM03813); 24 hours incubation. In outline: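 SMA patient fibroblasts (GM03813) in DMEM/10% FBS were treated with compound (0.1% DMSO final) for 24 h. FL-SMN and Δ7 mRNA were measured by RT-qPCR against oligo DNA standard curves and normalised to GAPDH. Values are % of the DMSO control, binned by asterisk from ≥100% to ≥180%.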
For the compound `Cc1cn2cc(-c3cc(F)c4nc(C5(F)CCN(C)CC5)[nH]c(=O)c4c3)ccc2n1` [Example 94, 8-fluoro-2-(4-fluoro-1-methylpiperidin-4-yl)-6-(2-methylimidazo[1,2-a]pyridin-6-yl)quinazolin-4(3H)-one], the “Percentage of increase (FL-SMN mRNA standardized against GAPDH, DMSO control set as 100%)” value is listed as “*** (equal to or higher than 150% but lower than 180%)”.
Then `CCN1CCC(F)(c2nc3c(F)cc(-c4ccc5nc(C)cn5c4)cc3c(=O)[nH]2)CC1` [Example 95, 2-(1-ethyl-4-fluoropiperidin-4-yl)-8-fluoro-6-(2-methylimidazo[1,2-a]pyridin-6-yl)quinazolin-4(3H)-one], with “*** (equal to or higher than 150% but lower than 180%)”; and `Cc1cn2cc(-c3cc(F)c4nc(C5(F)CCN(C(C)C)CC5)[nH]c(=O)c4c3)ccc2n1` [Example 96, 8-fluoro-2-(4-fluoro-1-isopropylpiperidin-4-yl)-6-(2-methylimidazo[1,2-a]pyridin-6-yl)quinazolin-4(3H)-one], with “*** (equal to or higher than 150% but lower than 180%)”.
Turning to `Cc1cn2cc(-c3cc(F)c4nc(C5(F)CCN(C)CC5)[nH]c(=O)c4c3)cc(F)c2n1` [Example 97, 8-fluoro-6-(8-fluoro-2-methylimidazo[1,2-a]pyridin-6-yl)-2-(4-fluoro-1-methylpiperidin-4-yl)quinazolin-4(3H)-one], the “Percentage of increase (FL-SMN mRNA standardized against GAPDH, DMSO control set as 100%)” value is given as “**** (equal to or higher than 180%)”.
Take `CCN1CCC(F)(c2nc3c(F)cc(-c4cc(F)c5nc(C)cn5c4)cc3c(=O)[nH]2)CC1` [Example 98, 2-(1-ethyl-4-fluoropiperidin-4-yl)-8-fluoro-6-(8-fluoro-2-methylimidazo[1,2-a]pyridin-6-yl)quinazolin-4(3H)-one]: the “Percentage of increase (FL-SMN mRNA standardized against GAPDH, DMSO control set as 100%)” value is “**** (equal to or higher than 180%)”.
Then `Cc1cn2cc(-c3cc(F)c4nc(C5(F)CCN(C(C)C)CC5)[nH]c(=O)c4c3)cc(F)c2n1` [Example 99, 8-fluoro-2-(4-fluoro-1-isopropylpiperidin-4-yl)-6-(8-fluoro-2-methylimidazo[1,2-a]pyridin-6-yl)quinazolin-4(3H)-one], with “**** (equal to or higher than 180%)”; and `CCN1CCC(F)(c2nc3c(C)cc(-c4cc(F)c5nc(C)cn5c4)nc3c(=O)[nH]2)CC1` [Example 100, 2-(1-ethyl-4-fluoropiperidin-4-yl)-6-(8-fluoro-2-methylimidazo[1,2-a]pyridin-6-yl)-8-methylpyrido[3,2-d]pyrimidin-4(3H)-one], with “**** (equal to or higher than 180%)”; and `Cc1cn2cc(-c3cc(C)c4nc(C5(F)CCN(C(C)C)CC5)[nH]c(=O)c4n3)cc(F)c2n1` [Example 101, 2-(4-fluoro-1-isopropylpiperidin-4-yl)-6-(8-fluoro-2-methylimidazo[1,2-a]pyridin-6-yl)-8-methylpyrido[3,2-d]pyrimidin-4(3H)-one], with “*** (equal to or higher than 150% but lower than 180%)”.
As for `Cc1cn2cc(-c3ccc4nc(C5(F)CCN(C6CC6)CC5)[nH]c(=O)c4n3)cc(F)c2n1` [Example 102, 2-(1-cyclopropyl-4-fluoropiperidin-4-yl)-6-(8-fluoro-2-methylimidazo[1,2-a]pyridin-6-yl)pyrido[3,2-d]pyrimidin-4(3H)-one], the “Percentage of increase (FL-SMN mRNA standardized against GAPDH, DMSO control set as 100%)” value is recorded as “** (equal to or higher than 120% but lower than 150%)”.
Then `Cc1cn2cc(-c3cc(C)c4nc(C5(F)CCN(C6CC6)CC5)[nH]c(=O)c4c3)cnc2n1` [Example 103, 2-(1-cyclopropyl-4-fluoropiperidin-4-yl)-6-(2-methylimidazo[1,2-a]pyrimidin-6-yl)-8-methylquinazolin-4(3H4)-one], with “** (equal to or higher than 120% but lower than 150%)”.
Then `Cc1cn2cc(-c3cc4c(=O)[nH]c(C5(F)CCN(C6CC6)CC5)nc4cn3)cc(F)c2n1` [Example 104, 2-(1-cyclopropyl-4-fluoropiperidin-4-yl)-6-(8-fluoro-2-methylimidazo[1,2-a]pyridin-6-yl)pyrido[3,4-d]pyrimidin-4(3H)-one], with “*** (equal to or higher than 150% but lower than 180%)”; and `Cc1nc2c(F)cc(-c3ccc4nc(C5CCN(C6CC6)CC5)[nH]c(=O)c4n3)cc2o1` [Example 106, 2-(1-cyclopropylpiperidin-4-yl)-6-(4-fluoro-2-methyl-1,3-benzoxazol-6-yl)pyrido[3,2-d]pyrimidin-4(3H)-one], with “** (equal to or higher than 120% but lower than 150%)”; and `Cc1nc2c(F)cc(-c3cc4c(=O)[nH]c(C5(F)CCN(C6CC6)CC5)nc4cn3)cc2o1` [Example 107, 2-(1-cyclopropyl-4-fluoropiperidin-4-yl)-6-(4-fluoro-2-methyl-1,3-benzoxazol-6-yl)pyrido[3,4-d]pyrimidin-4(3H)-one], with “** (equal to or higher than 120% but lower than 150%)”.
Then `Cc1cn2cc(-c3cc4c(=O)[nH]c(C5(F)CCN(C)CC5)nc4cn3)cc(F)c2n1` [Example 108, 2-(4-fluoro-1-methylpiperidin-4-yl)-6-(8-fluoro-2-methylimidazo[1,2-a]pyridin-6-yl)pyrido[3,4-d]pyrimidin-4(3H)-one], with “** (equal to or higher than 120% but lower than 150%)”.
With `CCN1CCC(F)(c2nc3cnc(-c4cc(F)c5nc(C)cn5c4)cc3c(=O)[nH]2)CC1` [Example 109, 2-(1-ethyl-4-fluoropiperidin-4-yl)-6-(8-fluoro-2-methylimidazo[1,2-a]pyridin-6-yl)pyrido[3,4-d]pyrimidin-4(3H)-one], the “Percentage of increase (FL-SMN mRNA standardized against GAPDH, DMSO control set as 100%)” value is on record as “*** (equal to or higher than 150% but lower than 180%)”.
Turning to `COCCN1CCC(F)(c2nc3ccc(-c4cc(F)c5nc(C)cn5c4)cc3c(=O)[nH]2)CC1` [Example 110, 2-[4-fluoro-1-(2-methoxyethyl)piperidin-4-yl]-6-(8-fluoro-2-methylimidazo[1,2-a]pyridin-6-yl)quinazolin-4(3H)-one], the “Percentage of increase (FL-SMN mRNA standardized against GAPDH, DMSO control set as 100%)” value was “** (equal to or higher than 120% but lower than 150%)”.
Then `Cc1nc2c(F)cc(-c3cc4c(=O)[nH]c(C5(F)CCNCC5)nc4cn3)cc2o1` [Example 111, 6-(4-fluoro-2-methy-1,3-benzoxazol-6-yl)-2-(4-fluoropiperidin-4-yl)pyrido[3,4-d]pyrimidin-4(3H)-one], with “**** (equal to or higher than 180%)”; and `COCCN1CCC(c2nc3cnc(-c4cc(F)c5nc(C)cn5c4)cc3c(=O)[nH]2)CC1` [Example 112, 6-(8-fluoro-2-methylimidazo[1,2-a]pyridin-6-yl)-2-[1-(2-methoxyethyl)piperidin-4-yl]pyrido[3,4-d]pyrimidin-4(3H)-one], with “**** (equal to or higher than 180%)”.
Then `COCCN1CCC(c2nc3cnc(-c4cc(F)c5nc(C)oc5c4)cc3c(=O)[nH]2)CC1` [Example 113, 6-(4-fluoro-2-methyl-1,3-benzoxazol-6-yl)-2-[1-(2-methoxyethyl)piperidin-4-yl]pyrido[3,4-d]pyrimidin-4(3H)-one], with “**** (equal to or higher than 180%)”.
Under `Cc1cn2cc(-c3cc4c(=O)[nH]c(C5CCN(C6CC6)CC5)nc4cn3)cc(F)c2n1` [Example 114, 2-(1-cyclopropylpiperidin-4-yl)-6-(8-fluoro-2-methylimidazo[1,2-a]pyridin-6-yl)pyrido[3,4-d]pyrimidin-4(3H)-one] stands “**** (equal to or higher than 180%)”.
As to `Cc1nc2c(F)cc(-c3cc4c(=O)[nH]c(C5CCN(C6CC6)CC5)nc4cn3)cc2o1` [Example 115, 2-(1-cyclopropylpiperidin-4-yl)-6-(4-fluoro-2-methyl-1,3-benzoxazol-6-yl)pyrido[3,4-d]pyrimidin-4(3H)-one], the “Percentage of increase (FL-SMN mRNA standardized against GAPDH, DMSO control set as 100%)” value was “**** (equal to or higher than 180%)”.
Then `Cc1cn2nc(-c3nc4ccc(N5CCN(C6CC6)CC5)cc4c(=O)[nH]3)cc2cn1` [Example 116, 6-(4-cyclopropylpiperazin-1-yl)-2-(6-methylpyrazolo[1,5-a]pyrazin-2-yl)quinazolin-4(3H)-one], with “**** (equal to or higher than 180%)”; and `Cc1cc2nc(-c3nc4ccc(N5CCN(C6CC6)CC5)cc4c(=O)[nH]3)cn2c(C)n1` [Example 117, 6-(4-cyclopropylpiperazin-1-yl)-2-(5,7-dimethylimidazo[1,2-c]pyrimidin-2-yl)quinazolin-4(3H)-one], with “**** (equal to or higher than 180%)”; and `Cc1cn2nc(-c3nc4ccc(N5CCN(C6CC6)CC5)cc4c(=O)[nH]3)ccc2n1` [Example 118, 6-(4-cyclopropylpiperazin-1-yl)-2-(2-methylimidazo[1,2-b]pyridazin-6-yl)quinazolin-4(3H)-one], with “*** (equal to or higher than 150% but lower than 180%)”.
Under `Cc1cn2nc(-c3nc4ccc(N5CCN(C(C)C)CC5)cc4c(=O)[nH]3)cc2c(C)n1` [Example 119, 2-(4,6-dimethylpyrazolo[1,5-a]pyrazin-2-yl)-6-(4-isopropylpiperazin-1-yl)quinazolin-4(3H)-one bistrifluoroacetate] stands “**** (equal to or higher than 180%)”.
